Data on eight cell lines can be found in the supplement of paper PMC10307832.

What all share (test): relative viability (nuclei count vs DMSO), 5 days (fraction); higher = more cells survive
Compound in test [1]: C1COCCN1C2=NC(=NC3=C2OC4=C3C=CC=N4)C5=CC(=CC=C5)NC(=O)C6=CN=C(C=C6)N + Cc1cc(Nc2cc(N3CCN(C)CC3)nc(Sc3ccc(NC(=O)C4CC4)cc3)n2)n[nH]1 [Tozasertib] (partner 0.1 µM)
Put shortly:
(§1)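 Five library-drug doses in √10 steps were combined with a fixed anchor-drug dose, or a single drug was given alone, by pin tool to lung cancer cell lines in 1536-well plates the day after seeding. Nuclei were stained and counted after 5 days. Relative viability is the nuclei count in treated wells over that in vehicle wells, taken as the median of duplicate plates.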

Compound in test [2]: C1COCCN1C2=NC(=NC3=C2OC4=C3C=CC=N4)C5=CC(=CC=C5)NC(=O)C6=CN=C(C=C6)N + O=C(CCCCCCC(=O)Nc1ccccc1)NO [Vorinostat] (partner 1 µM)
Put shortly:
as §1

Compound in the test “SGI-1776 + Linsitinib”: CN1CCC(CNc2ccc3ncc(-c4cccc(OC(F)(F)F)c4)n3n2)CC1 [SGI-1776] + C[C@]1(O)C[C@@H](c2nc(-c3ccc4ccc(-c5ccccc5)nc4c3)c3c(N)nccn32)C1 [Linsitinib] (partner 1 µM)
Put shortly: as §1

Compound in the test “Entinostat + Phenformin”: Nc1ccccc1NC(=O)c1ccc(CNC(=O)OCc2cccnc2)cc1 [Entinostat] + N=C(N)NC(=N)NCCc1ccccc1 [Phenformin] (partner 250 µM)
Put shortly: as §1

As to NCI-H23, the relative viability is 0.329 in test [1] (first compound 0.02 µM); 0.185 in test [1] (first compound 0.2 µM); 0.615 in test [1] (first compound 0.6325 µM); 0.263 in test [1] (first compound 2 µM); 0.609 in test [2] (first compound 0.02 µM); 0.635 in test [2] (first compound 0.06325 µM). Also, the relative viability in test [2] (first compound 0.2 µM) amounted to 0.5; in test [2] (first compound 0.6325 µM) it was 0.473; in test [2] (first compound 2 µM), 0.468; in the test with SGI-1776 + Linsitinib (first compound 0.08 µM) it was 0.724; with SGI-1776 + Linsitinib (first compound 0.8 µM) it was 0.541; with SGI-1776 + Linsitinib (first compound 2.53 µM), 0.517. Moreover, the relative viability in the test with SGI-1776 + Linsitinib (first compound 8 µM) was determined as 0.411; with Entinostat + Phenformin (first compound 0.02 µM) it was 0.71; with Entinostat + Phenformin (first compound 0.06325 µM), 0.667; with Entinostat + Phenformin (first compound 0.2 µM), 0.796; with Entinostat + Phenformin (first compound 0.6325 µM), 0.762; in the test with Entinostat + Phenformin (first compound 2 µM), 0.501.

For NCI-H322M, the relative viability in test [1] (first compound 0.02 µM) came out at 0.535; in test [1] (first compound 0.06325 µM), 0.49; in test [1] (first compound 0.2 µM), 0.471; in test [1] (first compound 0.6325 µM) it was 0.401; in test [1] (first compound 2 µM), 0.338; in test [2] (first compound 0.02 µM), 0.823. For the same cell line, the relative viability in test [2] (first compound 0.06325 µM) was 0.85; in test [2] (first compound 0.2 µM), 0.851; in test [2] (first compound 0.6325 µM), 0.904; in test [2] (first compound 2 µM) it was 0.764; in the test with SGI-1776 + Linsitinib (first compound 0.08 µM), 1.01; in the test with SGI-1776 + Linsitinib (first compound 0.8 µM) it was 1.04. The relative viability was 0.933 with SGI-1776 + Linsitinib (first compound 2.53 µM); 0.774 with SGI-1776 + Linsitinib (first compound 8 µM); 0.799 with Entinostat + Phenformin (first compound 0.02 µM); 0.963 in the test with Entinostat + Phenformin (first compound 0.06325 µM); 0.99 with Entinostat + Phenformin (first compound 0.2 µM); 0.809 with Entinostat + Phenformin (first compound 0.6325 µM). Also, the relative viability with Entinostat + Phenformin (first compound 2 µM) is 0.664.

NCI-H358: the relative viability in test [1] (first compound 0.06325 µM) is 0.117; in test [1] (first compound 0.2 µM), 0.0984; in test [1] (first compound 0.6325 µM) it was 0.099; in test [1] (first compound 2 µM), 0.0866; in test [2] (first compound 0.02 µM), 0.727; in test [2] (first compound 0.06325 µM) it was 0.723. Besides, the relative viability was 0.688 in test [2] (first compound 0.2 µM); 0.644 in test [2] (first compound 0.6325 µM); 0.332 in test [2] (first compound 2 µM); 0.725 with SGI-1776 + Linsitinib (first compound 0.08 µM); 0.756 in the test with SGI-1776 + Linsitinib (first compound 0.8 µM); 0.758 with SGI-1776 + Linsitinib (first compound 2.53 µM). The relative viability with SGI-1776 + Linsitinib (first compound 8 µM) was determined as 0.388; with Entinostat + Phenformin (first compound 0.02 µM) it was 0.335; in the test with Entinostat + Phenformin (first compound 0.06325 µM), 0.546; in the test with Entinostat + Phenformin (first compound 0.2 µM), 0.506; with Entinostat + Phenformin (first compound 0.6325 µM), 0.245; with Entinostat + Phenformin (first compound 2 µM), 0.108.

Turning to NCI-H441, the relative viability in test [1] (first compound 0.02 µM) stood at 0.609; in test [1] (first compound 0.06325 µM) it was 0.496; in test [1] (first compound 0.2 µM) it was 0.416; in test [1] (first compound 0.6325 µM), 0.401; in test [1] (first compound 2 µM), 0.299; in test [2] (first compound 0.02 µM) it was 0.759. The relative viability in test [2] (first compound 0.06325 µM) came to 0.918; in test [2] (first compound 0.2 µM), 0.798; in test [2] (first compound 0.6325 µM) it was 0.701; in test [2] (first compound 2 µM), 0.377; in the test with SGI-1776 + Linsitinib (first compound 0.08 µM), 0.506; in the test with SGI-1776 + Linsitinib (first compound 0.8 µM), 0.588. Moreover, the relative viability in the test with SGI-1776 + Linsitinib (first compound 2.53 µM) amounted to 0.645; in the test with SGI-1776 + Linsitinib (first compound 8 µM) it was 0.354; in the test with Entinostat + Phenformin (first compound 0.02 µM), 0.679; with Entinostat + Phenformin (first compound 0.06325 µM), 1.03; with Entinostat + Phenformin (first compound 0.2 µM) it was 0.757; in the test with Entinostat + Phenformin (first compound 0.6325 µM), 0.397. Moreover, in the test with Entinostat + Phenformin (first compound 2 µM), the relative viability amounted to 0.184.

On to NCI-H460, for which the relative viability in test [1] (first compound 0.02 µM) worked out at 0.465; in test [1] (first compound 0.06325 µM), 0.509; in test [1] (first compound 0.2 µM), 0.209; in test [1] (first compound 0.6325 µM), 0.392; in test [1] (first compound 2 µM), 0.0489; in test [2] (first compound 0.02 µM), 1.51. For the same cell line, the relative viability in test [2] (first compound 0.06325 µM) is 0.788; in test [2] (first compound 0.2 µM), 0.907; in test [2] (first compound 0.6325 µM), 0.559; in test [2] (first compound 2 µM), 0.221; in the test with SGI-1776 + Linsitinib (first compound 0.08 µM), 0.683; with SGI-1776 + Linsitinib (first compound 0.8 µM) it was 0.859. For the same cell line, the relative viability came out at 0.785 in the test with SGI-1776 + Linsitinib (first compound 2.53 µM); 0.459 with SGI-1776 + Linsitinib (first compound 8 µM); 0.511 with Entinostat + Phenformin (first compound 0.02 µM); 0.479 with Entinostat + Phenformin (first compound 0.06325 µM); 0.298 with Entinostat + Phenformin (first compound 0.2 µM); 0.0601 with Entinostat + Phenformin (first compound 0.6325 µM). Besides, the relative viability with Entinostat + Phenformin (first compound 2 µM) was found to be 0.0314.

Regarding NCI-H520, the relative viability worked out at 0.431 in test [1] (first compound 0.02 µM); 0.437 in test [1] (first compound 0.06325 µM); 0.413 in test [1] (first compound 0.2 µM); 0.479 in test [1] (first compound 0.6325 µM); 0.327 in test [1] (first compound 2 µM); 0.74 in test [2] (first compound 0.02 µM). Moreover, the relative viability is 0.747 in test [2] (first compound 0.06325 µM); 0.77 in test [2] (first compound 0.2 µM); 0.699 in test [2] (first compound 0.6325 µM); 0.451 in test [2] (first compound 2 µM); 1.17 in the test with SGI-1776 + Linsitinib (first compound 0.08 µM); 1.02 with SGI-1776 + Linsitinib (first compound 0.8 µM). In addition, the relative viability in the test with SGI-1776 + Linsitinib (first compound 2.53 µM) is 1.05; with SGI-1776 + Linsitinib (first compound 8 µM) it was 0.848; with Entinostat + Phenformin (first compound 0.02 µM) it was 0.497; with Entinostat + Phenformin (first compound 0.06325 µM), 0.723; with Entinostat + Phenformin (first compound 0.2 µM), 0.701; in the test with Entinostat + Phenformin (first compound 0.6325 µM), 0.615. Also, the relative viability with Entinostat + Phenformin (first compound 2 µM) was found to be 0.49.

Turning to NCI-H596, the relative viability in test [1] (first compound 0.02 µM) was found to be 0.85; in test [1] (first compound 0.06325 µM), 0.932; in test [1] (first compound 0.2 µM) it was 0.874; in test [1] (first compound 0.6325 µM), 0.761; in test [1] (first compound 2 µM) it was 0.661; in test [2] (first compound 0.02 µM), 0.618. The relative viability in test [2] (first compound 0.06325 µM) was 0.551; in test [2] (first compound 0.2 µM) it was 0.642; in test [2] (first compound 0.6325 µM), 0.489; in test [2] (first compound 2 µM), 0.465; with SGI-1776 + Linsitinib (first compound 0.08 µM) it was 1.05; with SGI-1776 + Linsitinib (first compound 0.8 µM) it was 0.999. Further, the relative viability in the test with SGI-1776 + Linsitinib (first compound 2.53 µM) stood at 0.981; with SGI-1776 + Linsitinib (first compound 8 µM) it was 0.943; in the test with Entinostat + Phenformin (first compound 0.02 µM), 0.752; in the test with Entinostat + Phenformin (first compound 0.06325 µM), 0.74; in the test with Entinostat + Phenformin (first compound 0.2 µM), 0.823; with Entinostat + Phenformin (first compound 0.6325 µM), 0.734. For the same cell line, in the test with Entinostat + Phenformin (first compound 2 µM), the relative viability amounted to 0.554.

NCI-H647: the relative viability in test [1] (first compound 0.02 µM) was found to be 0.155; in test [1] (first compound 0.06325 µM) it was 0.292; in test [1] (first compound 0.2 µM), 0.252; in test [1] (first compound 0.6325 µM), 0.137; in test [1] (first compound 2 µM) it was 0.145; in test [2] (first compound 0.02 µM), 0.625. For the same cell line, the relative viability in test [2] (first compound 0.06325 µM) worked out at 0.757; in test [2] (first compound 0.2 µM) it was 0.502; in test [2] (first compound 0.6325 µM), 0.433; in test [2] (first compound 2 µM), 0.29; with SGI-1776 + Linsitinib (first compound 0.08 µM), 1.29; with SGI-1776 + Linsitinib (first compound 0.8 µM), 1.16. Besides, the relative viability in the test with SGI-1776 + Linsitinib (first compound 2.53 µM) was 0.978; with SGI-1776 + Linsitinib (first compound 8 µM), 0.739; in the test with Entinostat + Phenformin (first compound 0.02 µM), 0.54; with Entinostat + Phenformin (first compound 0.06325 µM), 0.555; with Entinostat + Phenformin (first compound 0.2 µM), 0.405; with Entinostat + Phenformin (first compound 0.6325 µM), 0.158. Besides, the relative viability in the test with Entinostat + Phenformin (first compound 2 µM) is 0.0748.
